Laboratory results published in BindingDB's records for patent US12115157 (Boehringer Ingelheim International, 2024).

What follows are molecules tested against G-protein coupled receptor 52 (Homo sapiens, UniProt Q9Y2T5) (assay: Homogeneous Time-Resolved Fluorescence (HTRF) Assay).
Procedure: HTRF cAMP assays were performed using commercially available assay kits according to the manufacturer's instructions (cAMP Dynamic 2 Assay Kit; #62AM4PEJ, Cisbio Bioassays, Bedford, MA). An aliquot of CHO-K1 cells stably expressing recombinant human GPR52 was thawed and resuspended in cell buffer (1×PBS (w/o Ca2+/Mg2+)) at a density of 4×10^5 cells per mL. Test compounds were solubilized in DMSO to 10 mM stock solutions and serially diluted in DMSO using 6-fold dilutions to generate 8-point dose response curves. These serially diluted samples were then diluted 1:50 in compound dilution buffer (1×PBS (w/o Ca2+/Mg2+) containing 0.5 mM IBMX, 0.1% BSA) to achieve a 4× stock. The diluted compounds were transferred (5 μL per well) in duplicate to the 384-well assay plate (Optiplate #6007290, PerkinElmer, Waltham, MA). Both a positive (reference compound) and negative (non-stimulated vehicle) control was included in each assay run in column 23. The cell suspension was subsequently dispensed into the 384-well assay plates at 15 μL per well (6000 cells) such that the compound was diluted to 1×. […] After a one-hour incubation at room temperature, 10 μL of cAMP D2 reagent followed by 10 μL of cryptate reagent (provided in the Cisbio kit) was added to each well. Plates were then incubated at room temperature for one hour prior to reading. Time-resolved fluorescence measurements were collected on an EnVision HTRF plate reader (PerkinElmer, Waltham, MA).

Chain of G-protein coupled receptor 52 (Q9Y2T5 whole entry): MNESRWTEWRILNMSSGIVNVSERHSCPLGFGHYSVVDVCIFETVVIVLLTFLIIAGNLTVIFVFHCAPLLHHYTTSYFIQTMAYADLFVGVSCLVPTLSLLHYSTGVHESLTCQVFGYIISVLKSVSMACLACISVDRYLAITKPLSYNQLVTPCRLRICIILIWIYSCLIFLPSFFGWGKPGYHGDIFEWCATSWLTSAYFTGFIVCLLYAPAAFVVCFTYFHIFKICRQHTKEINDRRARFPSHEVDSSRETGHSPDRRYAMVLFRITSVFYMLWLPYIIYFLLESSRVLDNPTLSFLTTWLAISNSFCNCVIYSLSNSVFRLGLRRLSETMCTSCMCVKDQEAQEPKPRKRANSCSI

| SMILES | EC50 [µM] |
| --- | --- |
| CC(=O)N1C[C@H](NC(=O)c2nsnc2N2CC(Oc3ccc(F)c(F)c3)C2)C(F)(F)C1 [US12115157, Ex. 13b] | 0.003 |
| CC(=O)N1C[C@@H](NC(=O)c2nsnc2N2CC(Oc3ccc(F)c(F)c3)C2)C(F)(F)C1 [US12115157, Ex. 13a] | 0.595 |
| CC(=O)N1C[C@@H](NC(=O)c2nccnc2N2CC(Oc3ccc(F)c(F)c3)C2)C(F)(F)C1 [US12115157, Ex. 8a] | 1.09 |
| CC(=O)N1C[C@H](NC(=O)c2nccnc2N2CC(Oc3cc(F)c(F)c(F)c3)C2)C(F)(F)C1 [US12115157, Ex. 11b] | 0.01 |
| CC(=O)N1C[C@H](NC(=O)c2nccnc2N2CC(Oc3ccc(F)c(F)c3)C2)C(F)(F)C1 [US12115157, Ex. 8b] | 0.007 |
| CC(=O)N1C[C@@H](NC(=O)c2nccnc2N2CC(Oc3cc(F)c(F)c(F)c3)C2)C(F)(F)C1 [US12115157, Ex. 11a] | 1.28 |
